In turn, `*C(=O)Nc1ccc(Oc2ccc(C(C)(C)c3ccc(Oc4ccc(NC(=O)c5ccc(N6C(=O)c7ccc(*)cc7C6=O)cc5)cc4)cc3)cc2)cc1` (repeat unit) registered a glass transition temperature of 216.00 °C.
As for `*C(=O)Nc1ccc(Oc2ccc(C(C)(C)c3ccc(Oc4ccc(NC(=O)c5ccc6c(c5)C(=O)N(c5ccc(Oc7ccc8ccc(Oc9ccc(N%10C(=O)c%11ccc(*)cc%11C%10=O)cc9)cc8c7)cc5)C6=O)cc4)cc3)cc2)cc1` (repeat unit), the figure is 250.00 °C; as for `*C(=O)Nc1ccc(Oc2ccc(C(C)(C)c3ccc(Oc4ccc(NC(=O)c5ccc6c(c5)C(=O)N(c5ccc(Oc7cccc8c(Oc9ccc(N%10C(=O)c%11ccc(*)cc%11C%10=O)cc9)cccc78)cc5)C6=O)cc4)cc3)cc2)cc1` (repeat unit), 235.00 °C.
The compound `*C(=O)Nc1ccc(Oc2ccc(C(C)(C)c3cccc(C(C)(C)c4ccc(Oc5ccc(N6C(=O)c7ccc(*)cc7C6=O)cc5)cc4)c3)cc2)cc1` (repeat unit) registered a glass transition temperature of 177.00 °C.
In turn, `*CC(=O)Nc1ccc(Oc2ccc(C(C)(C)c3ccc(Oc4ccc(NC(=O)CN5C(=O)c6ccc(C(c7ccc8c(c7)C(=O)N(*)C8=O)(C(F)(F)F)C(F)(F)F)cc6C5=O)cc4)cc3)cc2)cc1` (repeat unit) showed a glass transition temperature of 224.00 °C.
With `*Oc1ccc(C(C)(C)c2ccc(Oc3ccc(*)nn3)cc2)cc1` (repeat unit) the figure was 180.00 °C; with `*Oc1ccc(NC(=O)c2ccc(Oc3ccc(C(C)(C)c4ccc(C(C)(C)c5ccc(Oc6ccc(C(=O)Nc7ccc(Oc8ccc(C(C)(C)c9ccc(*)cc9)cc8)cc7)cc6)cc5)cc4)cc3)cc2)cc1` (repeat unit), 163.00 °C; with `*Oc1ccc(Oc2ccc(P(=O)(c3ccccc3)c3ccc(Oc4ccc(Oc5cccc(*)n5)cc4)cc3)cc2)cc1` (repeat unit), 164.00 °C.
As for `*Oc1ccc(Oc2ccc(S(=O)(=O)c3ccc(Oc4ccc(Oc5cccc(*)n5)cc4)cc3)cc2)cc1` (repeat unit), the figure is 158.00 °C; as for `*Oc1ccc(P(=O)(c2ccccc2)c2ccc(Oc3ccc(C(C)(C)c4ccc(*)cc4)cc3)cc2)cc1` (repeat unit), 199.00 °C; as for `*Oc1ccc(P(=O)(c2ccccc2)c2ccc(Oc3ccc(C(c4ccc(*)cc4)(C(F)(F)F)C(F)(F)F)cc3)cc2)cc1` (repeat unit), 210.50 °C.
As for `*Oc1ccc(S(=O)(=O)c2ccc(-c3ccc(S(=O)(=O)c4ccc(*)cc4)cc3)cc2)cc1` (repeat unit), the figure is 282.00 °C.
As to `*Oc1ccc(S(=O)(=O)c2ccc(Oc3ccc(C(C)(C)c4ccc(*)c(C(OC)(C(F)(F)F)C(F)(F)F)c4)cc3C(OC)(C(F)(F)F)C(F)(F)F)cc2)cc1` (repeat unit), the glass transition temperature was 163.00 °C.
With `*Oc1ccc(S(=O)(=O)c2ccc(Oc3ccc(C(C)(C)c4ccc(*)c(C)c4)cc3C)cc2)cc1` (repeat unit) the figure was 180.00 °C; with `*Oc1ccc(S(=O)(=O)c2ccc(Oc3ccc(C(C)(C)c4ccc(*)cc4)cc3)c([N+](=O)[O-])c2)cc1[N+](=O)[O-]` (repeat unit), 206.00 °C.
With `*Oc1ccc(S(=O)(=O)c2ccc(Oc3ccc(C(C)(C)c4ccc(*)cc4)cc3)cc2)c(N)c1` (repeat unit) the figure was 202.00 °C; with `*Oc1ccc(S(=O)(=O)c2ccc(Oc3ccc(C(C)(C)c4ccc(*)cc4)cc3)cc2)cc1` (repeat unit), 186.00 °C.
As for `*Oc1ccc(S(=O)(=O)c2ccc(Oc3ccc(C(C)(C)c4ccc(*)cc4)cc3[N+](=O)[O-])cc2)cc1` (repeat unit), the figure is 190.00 °C.
The compound `*Oc1ccc(S(=O)(=O)c2ccc(Oc3ccc(C(C)(c4ccc(*)cc4)c4ccc(O)cc4)cc3)cc2)cc1` (repeat unit) displayed a glass transition temperature of 228.00 °C.
In turn, `*Oc1ccc(S(=O)(=O)c2ccc(Oc3ccc(C(c4ccc(*)cc4)(C(F)(F)F)C(F)(F)F)cc3)cc2)cc1` (repeat unit) came in with a glass transition temperature of 199.70 °C.
Regarding `*Oc1ccc(S(=O)(=O)c2ccc(Oc3ccc(C(c4ccc(*)cc4)c4ccccc4C(=O)O)cc3)cc2)cc1` (repeat unit), the glass transition temperature amounted to 223.00 °C.
With `*Oc1ccc(S(=O)(=O)c2ccc(Oc3ccc(C4(c5ccc(*)cc5)CC5CCC4C5)cc3)cc2)cc1` (repeat unit) the figure was 250.00 °C.
`*Oc1ccc(S(=O)(=O)c2ccc(Oc3ccc(C4(c5ccc(*)cc5)CCCCC4)cc3)cc2)cc1` (repeat unit) showed a glass transition temperature of 226.00 °C.
As for `*Oc1ccc(S(=O)(=O)c2ccc(Oc3ccc(C4(c5ccc(*)cc5)CCCCCC4)cc3)cc2)cc1` (repeat unit), the figure is 247.00 °C; as for `*Oc1ccc(S(=O)(=O)c2ccc(Oc3ccc(C4(c5ccc(*)cc5)c5ccccc5-c5ccccc54)cc3)cc2)cc1` (repeat unit), 278.50 °C; as for `*Oc1ccc(S(=O)(=O)c2ccc(Oc3ccc(C45CC6CC(CC(c7ccc(*)cc7)(C6)C4)C5)cc3)cc2)cc1` (repeat unit), 242.00 °C.
With `*Oc1ccc(S(=O)(=O)c2ccc(Oc3ccc(S(=O)(=O)c4ccc(-c5ccc(S(=O)(=O)c6ccc(*)cc6)cc5)cc4)cc3)cc2)cc1` (repeat unit) the figure was 267.00 °C; with `*Oc1ccc2ccc(Oc3ccc(C(=O)Nc4ccc(Oc5ccc(C(C)(C)c6ccc(C(C)(C)c7ccc(Oc8ccc(NC(=O)c9ccc(*)cc9)cc8)cc7)cc6)cc5)cc4)cc3)cc2c1` (repeat unit), 166.00 °C.
As for `*c1ccc(Oc2ccc(C(=O)c3cccc(C(=O)c4ccc(Oc5ccc(-c6cc(*)[nH]n6)cc5)cc4)c3)cc2)cc1` (repeat unit), the figure is 205.00 °C; as for `*c1ccc(Oc2ccc(C(=O)c3cccc(C(=O)c4ccc(Oc5ccc(-c6nc(-c7ccc(-c8nc(*)c(-c9ccccc9)[nH]8)cc7)[nH]c6-c6ccccc6)cc5)cc4)c3)cc2)cc1` (repeat unit), 270.00 °C; as for `*c1ccc(Oc2ccc(C(C)(C)c3ccc(Oc4ccc(N5C(=O)c6ccc(Oc7ccc(C(C)(C)c8ccc(Oc9ccc%10c(c9)C(=O)N(*)C%10=O)cc8)cc7)cc6C5=O)cc4)cc3)cc2)cc1` (repeat unit), 176.00 °C.
For the compound `*c1ccc(Oc2ccc(C(C)(C)c3ccc(Oc4ccc(N5C(=O)c6ccc(Oc7ccccc7Oc7ccc8c(c7)C(=O)N(*)C8=O)cc6C5=O)cc4C(F)(F)F)cc3)cc2)c(C(F)(F)F)c1` (repeat unit), the glass transition temperature was determined as 192.00 °C.
Turning to `*c1ccc(Oc2ccc(C(c3ccc(Oc4ccc(N5C(=O)c6ccc7c8c(ccc(c68)C5=O)C(=O)N(*)C7=O)cc4)c(S(=O)(=O)O)c3)(C(F)(F)F)C(F)(F)F)cc2S(=O)(=O)O)cc1` (repeat unit), the glass transition temperature turned out to be 270.00 °C.
Consider `*c1ccc(Oc2ccc(C(c3ccc(Oc4ccc(N5C(=O)c6ccc7c8c(ccc(c68)C5=O)C(=O)N(*)C7=O)cc4)cc3)(C(F)(F)F)C(F)(F)F)cc2)cc1` (repeat unit), for which the glass transition temperature was 280.00 °C.
The compound `*c1ccc(Oc2ccc(C3(c4ccc(Oc5ccc(-c6ccc(*)s6)cc5C(F)(F)F)cc4)c4ccccc4-c4ccccc43)cc2)c(C(F)(F)F)c1` (repeat unit) gave a glass transition temperature of 169.00 °C.
With `*c1ccc(Oc2ccc(C3(c4ccc(Oc5ccc(N6C(=O)CC(=O)N(*)C6=S)cc5)cc4)c4ccccc4-c4ccccc43)cc2)cc1` (repeat unit) the figure was 175.00 °C.
Compound `*c1ccc(Oc2ccc(N3C(=O)C4CCC5C(=O)N(*)C(=O)C5C4C3=O)cc2)cc1` (repeat unit) had a glass transition temperature of 342.00 °C.
As for `*c1ccc(Oc2ccc(N3C(=O)N4C(c5ccc(OC)cc5)N(*)C(=O)N4C3c3ccc(OC)cc3)cc2)cc1` (repeat unit), the figure is 163.00 °C; as for `*c1ccc(Oc2ccc(Oc3ccc(N4C(=O)C5CCC6C(=O)N(*)C(=O)C6C5C4=O)cc3)cc2)cc1` (repeat unit), 274.00 °C.
Regarding `*c1ccc(Oc2ccc(Oc3ccc(N4C(=O)CC(=O)N(*)C4=S)cc3)cc2)cc1` (repeat unit), the glass transition temperature was found to be 157.00 °C.
As for `*c1ccc(Oc2ccc(Oc3ccc(Oc4ccc(-n5c(=O)c6cc7c(=O)n(*)c(=O)c7cc6c5=O)cc4)cc3)cc2)cc1` (repeat unit), the figure is 295.00 °C; as for `*c1ccc(Oc2ccc(Oc3ccc(P(=O)(c4ccccc4)c4ccc(Oc5ccc(Oc6ccc(-c7nc8ccc(-c9ccc%10nc(*)oc%10c9)cc8o7)cc6)cc5)cc4)cc3)cc2)cc1` (repeat unit), 223.00 °C.
As for `*c1ccc(Oc2ccc(Oc3ccc(P(=O)(c4ccccc4)c4ccc(Oc5ccc(Oc6ccc(-c7nc8ccccc8nc7*)cc6)cc5)cc4)cc3)cc2)cc1` (repeat unit), the figure is 209.00 °C; as for `*c1ccc(Oc2ccc(S(=O)(=O)c3ccc(C)cc3)cc2)c(N2C(=O)c3ccc(-c4ccc5c(c4)C(=O)N(*)C5=O)cc3C2=O)c1` (repeat unit), 281.00 °C.
On to `*c1ccc(Oc2ccc(S(=O)(=O)c3ccc(Oc4ccc(-c5c6c(c(*)c7ccccc57)C(=O)N(c5ccc(Cl)cc5)C6=O)cc4)cc3)cc2)cc1` (repeat unit), for which the glass transition temperature stood at 280.00 °C.
In turn, `*c1ccc(Oc2ccc(S(=O)(=O)c3ccc(Oc4ccc(-c5c6c(c(*)c7ccccc57)C(=O)N(c5cccc(C(F)(F)F)c5)C6=O)cc4)cc3)cc2)cc1` (repeat unit) displayed a glass transition temperature of 280.50 °C.
In turn, `*c1ccc(Oc2ccc(S(=O)(=O)c3ccc(Oc4ccc(-c5c6c(c(*)c7ccccc57)C(=O)N(c5ccccc5)C6=O)cc4)cc3)cc2)cc1` (repeat unit) registered a glass transition temperature of 310.00 °C.
As for `*c1ccc(Oc2ccc(S(=O)(=O)c3ccc(Oc4ccc(-c5c6c(c(*)c7ccccc57)C(=O)N(c5ccccc5-c5ccccc5)C6=O)cc4)cc3)cc2)cc1` (repeat unit), the figure is 278.00 °C; as for `*c1ccc(Oc2ccc(S(=O)(=O)c3ccc(Oc4ccc(-c5c6c(c(*)c7ccccc57)C(=O)N(c5ccccc5C(F)(F)F)C6=O)cc4)cc3)cc2)cc1` (repeat unit), 290.00 °C.

The values are drawn from the PolyMetriX glass transition set.
